{"source": "patent US12102615B2", "about": "(THE TEXAS A&M UNIVERSITY SYSTEM, priority 2018, dated 2024)", "type_in_all_cases": "cell-based", "key": {"[1]": {"test_system": "Fluconazole resistant C. albicans and C. glabrata", "assay": "MIC against fluconazole resistant isolates", "procedure": "(§1) Minimum inhibitory concentration (MIC) susceptibility testing was performed according to the CLSI M27-A3 and M38-A2 standards for the susceptibility testing of yeasts and filamentous fungi, respectively. Incubation temperature was at 35° C. and the inoculum size was 0.5-2.5×10^3 colony-forming units (CFU)/mL and 0.4-5×10^4 conidia/mL for yeasts and filamentous fungi, respectively. Inoculum concentration for dermatophytes was 1-3×10^3 conidia/mL. RPMI was used throughout as the growth medium and Cryptococcus strains were tested in YNB. […] Voriconazole MICs were recorded at 80% inhibition after 96 hours of incubation for dermatophytes. S. cerevisiae deletion mutants were obtained from the commercially available BY4741 deletion library (Thermo Scientific). Susceptibility testing was carried out on inoculum size of 0.5-1×10^4 cells/ml in YPD media at 30° C. and MICs recorded after 48 and 60 hours."}, "[2]": {"test_system": "Trichophyton mentagrophytes 10207", "assay": "MIC susceptibility testing (CLSI M38-A2)", "conditions": "Trichophyton mentagrophytes, 10207, read-out: Fluconazole MIC", "procedure": "as §1"}, "[3]": {"test_system": "Trichophyton mentagrophytes 28556", "assay": "MIC susceptibility testing (CLSI M38-A2)", "conditions": "Trichophyton mentagrophytes, 28556, read-out: Fluconazole MIC", "procedure": "as §1"}, "[4]": {"test_system": "Trichophyton mentagrophytes 28641", "assay": "MIC susceptibility testing (CLSI M38-A2)", "conditions": "Trichophyton mentagrophytes, 28641, read-out: Fluconazole MIC", "procedure": "as §1"}, "[5]": {"test_system": "Trichophyton rubrum 11199", "assay": "MIC susceptibility testing (CLSI M38-A2)", "conditions": "Trichophyton rubrum, 11199, read-out: Fluconazole MIC", "procedure": "as §1"}, "[6]": {"test_system": "Trichophyton rubrum 28658", "assay": "MIC susceptibility testing (CLSI M38-A2)", "conditions": "Trichophyton rubrum, 28658, read-out: Fluconazole MIC", "procedure": "as §1"}, "[7]": {"test_system": "Trichophyton rubrum 28659", "assay": "MIC susceptibility testing (CLSI M38-A2)", "conditions": "Trichophyton rubrum, 28659, read-out: Fluconazole MIC", "procedure": "as §1"}, "Candida albicans 23512": {"test_system": "Candida albicans 23512", "assay": "MIC susceptibility testing (CLSI M27-A3)", "conditions": "Candida albicans, 23512, 24 h, read-out: Fluconazole MIC", "procedure": "as §1"}, "Candida albicans 28102": {"test_system": "Candida albicans 28102", "assay": "MIC susceptibility testing (CLSI M27-A3)", "conditions": "Candida albicans, 28102, 24 h, read-out: Fluconazole MIC", "procedure": "as §1"}, "Candida albicans 28200": {"test_system": "Candida albicans 28200", "assay": "MIC susceptibility testing (CLSI M27-A3)", "conditions": "Candida albicans, 28200, 24 h, read-out: Fluconazole MIC", "procedure": "as §1"}, "Candida glabrata 25742": {"test_system": "Candida glabrata 25742", "assay": "MIC susceptibility testing (CLSI M27-A3)", "conditions": "Nakaseomyces glabratus, 25742, 24 h, read-out: Fluconazole MIC", "procedure": "as §1"}, "Candida glabrata 27243": {"test_system": "Candida glabrata 27243", "assay": "MIC susceptibility testing (CLSI M27-A3)", "conditions": "Nakaseomyces glabratus, 27243, 24 h, read-out: Fluconazole MIC", "procedure": "as §1"}, "Candida glabrata 28271": {"test_system": "Candida glabrata 28271", "assay": "MIC susceptibility testing (CLSI M27-A3)", "conditions": "Nakaseomyces glabratus, 28271, 24 h, read-out: Fluconazole MIC", "procedure": "as §1"}, "Candida krusei 28415": {"test_system": "Candida krusei 28415", "assay": "MIC susceptibility testing (CLSI M27-A3)", "conditions": "Pichia kudriavzevii, 28415, 24 h, read-out: Fluconazole MIC", "procedure": "as §1"}, "Candida krusei 28570": {"test_system": "Candida krusei 28570", "assay": "MIC susceptibility testing (CLSI M27-A3)", "conditions": "Pichia kudriavzevii, 28570, 24 h, read-out: Fluconazole MIC", "procedure": "as §1"}, "Candida krusei 9541": {"test_system": "Candida krusei 9541", "assay": "MIC susceptibility testing (CLSI M27-A3)", "conditions": "Pichia kudriavzevii, 9541, 24 h, read-out: Fluconazole MIC", "procedure": "as §1"}, "[8]": {"test_system": "Candida parapsilosis 2006", "assay": "MIC susceptibility testing (CLSI M27-A3)", "conditions": "Lodderomyces parapsilosis, 2006, 24 h, read-out: Fluconazole MIC", "procedure": "as §1"}, "[9]": {"test_system": "Candida parapsilosis 28174", "assay": "MIC susceptibility testing (CLSI M27-A3)", "conditions": "Lodderomyces parapsilosis, 28174, 24 h, read-out: Fluconazole MIC", "procedure": "as §1"}, "[10]": {"test_system": "Candida parapsilosis 28364", "assay": "MIC susceptibility testing (CLSI M27-A3)", "conditions": "Lodderomyces parapsilosis, 28364, 24 h, read-out: Fluconazole MIC", "procedure": "as §1"}, "Candida tropicalis 28272": {"test_system": "Candida tropicalis 28272", "assay": "MIC susceptibility testing (CLSI M27-A3)", "conditions": "Candida tropicalis, 28272, 24 h, read-out: Fluconazole MIC", "procedure": "as §1"}, "Candida tropicalis 28478": {"test_system": "Candida tropicalis 28478", "assay": "MIC susceptibility testing (CLSI M27-A3)", "conditions": "Candida tropicalis, 28478, 24 h, read-out: Fluconazole MIC", "procedure": "as §1"}, "Candida tropicalis 9624": {"test_system": "Candida tropicalis 9624", "assay": "MIC susceptibility testing (CLSI M27-A3)", "conditions": "Candida tropicalis, 9624, 24 h, read-out: Fluconazole MIC", "procedure": "as §1"}, "[11]": {"test_system": "Cryptococcus neoformans 19526", "assay": "MIC susceptibility testing (CLSI M27-A3)", "conditions": "Cryptococcus neoformans, 19526, 72 h, read-out: Fluconazole MIC", "procedure": "as §1"}, "[12]": {"test_system": "Cryptococcus neoformans 27708", "assay": "MIC susceptibility testing (CLSI M27-A3)", "conditions": "Cryptococcus neoformans, 27708, 72 h, read-out: Fluconazole MIC", "procedure": "as §1"}, "[13]": {"test_system": "Cryptococcus neoformans 28446", "assay": "MIC susceptibility testing (CLSI M27-A3)", "conditions": "Cryptococcus neoformans, 28446, 72 h, read-out: Fluconazole MIC", "procedure": "as §1"}}, "data": [{"smiles": "OC(Cn1cncn1)(Cn1cncn1)c1ccc(F)cc1F", "note": "[Fluconazole]", "values": [{"measurement": "MIC / inhibitory concentrations", "setting": "[1]", "value": "≥ 32", "unit": "µg/mL"}, {"measurement": "MIC", "setting": "[2]", "value": "> 16", "unit": "µg/mL"}, {"measurement": "MIC", "setting": "[3]", "value": "> 16", "unit": "µg/mL"}, {"measurement": "MIC", "setting": "[4]", "value": 16, "unit": "µg/mL"}, {"measurement": "MIC", "setting": "[5]", "value": 0.25, "unit": "µg/mL"}, {"measurement": "MIC", "setting": "[6]", "value": 2, "unit": "µg/mL"}, {"measurement": "MIC", "setting": "[7]", "value": 2, "unit": "µg/mL"}, {"measurement": "MIC", "setting": "Candida albicans 23512", "value": 32, "unit": "µg/mL"}, {"measurement": "MIC", "setting": "Candida albicans 28102", "value": 0.125, "unit": "µg/mL"}, {"measurement": "MIC", "setting": "Candida albicans 28200", "value": 8, "unit": "µg/mL"}, {"measurement": "MIC", "setting": "Candida glabrata 25742", "value": 4, "unit": "µg/mL"}, {"measurement": "MIC", "setting": "Candida glabrata 27243", "value": 64, "unit": "µg/mL"}, {"measurement": "MIC", "setting": "Candida glabrata 28271", "value": "> 64", "unit": "µg/mL"}, {"measurement": "MIC", "setting": "Candida krusei 28415", "value": 64, "unit": "µg/mL"}, {"measurement": "MIC", "setting": "Candida krusei 28570", "value": 16, "unit": "µg/mL"}, {"measurement": "MIC", "setting": "Candida krusei 9541", "value": 16, "unit": "µg/mL"}, {"measurement": "MIC", "setting": "[8]", "value": 0.125, "unit": "µg/mL"}, {"measurement": "MIC", "setting": "[9]", "value": 0.25, "unit": "µg/mL"}, {"measurement": "MIC", "setting": "[10]", "value": 0.25, "unit": "µg/mL"}, {"measurement": "MIC", "setting": "Candida tropicalis 28272", "value": 0.125, "unit": "µg/mL"}, {"measurement": "MIC", "setting": "Candida tropicalis 28478", "value": 0.125, "unit": "µg/mL"}, {"measurement": "MIC", "setting": "Candida tropicalis 9624", "value": 0.25, "unit": "µg/mL"}, {"measurement": "MIC", "setting": "[11]", "value": 4, "unit": "µg/mL"}, {"measurement": "MIC", "setting": "[12]", "value": 2, "unit": "µg/mL"}, {"measurement": "MIC", "setting": "[13]", "value": 4, "unit": "µg/mL"}]}]}
